We go through 24 compounds from patent publication US20260356820A1, “Pyrrolidine and Imidazolidine Based DNA Polymerase Theta Inhibitors and Use Thereof” (Thomas Jefferson University, priority 2022, published 2026).

Read-outs that look alike come from different tables or passages of the source.

The test deals with T1, human Polq polymerase domain (Homo sapiens, UniProt O75417).
T1 sequence (O75417 1792-2590): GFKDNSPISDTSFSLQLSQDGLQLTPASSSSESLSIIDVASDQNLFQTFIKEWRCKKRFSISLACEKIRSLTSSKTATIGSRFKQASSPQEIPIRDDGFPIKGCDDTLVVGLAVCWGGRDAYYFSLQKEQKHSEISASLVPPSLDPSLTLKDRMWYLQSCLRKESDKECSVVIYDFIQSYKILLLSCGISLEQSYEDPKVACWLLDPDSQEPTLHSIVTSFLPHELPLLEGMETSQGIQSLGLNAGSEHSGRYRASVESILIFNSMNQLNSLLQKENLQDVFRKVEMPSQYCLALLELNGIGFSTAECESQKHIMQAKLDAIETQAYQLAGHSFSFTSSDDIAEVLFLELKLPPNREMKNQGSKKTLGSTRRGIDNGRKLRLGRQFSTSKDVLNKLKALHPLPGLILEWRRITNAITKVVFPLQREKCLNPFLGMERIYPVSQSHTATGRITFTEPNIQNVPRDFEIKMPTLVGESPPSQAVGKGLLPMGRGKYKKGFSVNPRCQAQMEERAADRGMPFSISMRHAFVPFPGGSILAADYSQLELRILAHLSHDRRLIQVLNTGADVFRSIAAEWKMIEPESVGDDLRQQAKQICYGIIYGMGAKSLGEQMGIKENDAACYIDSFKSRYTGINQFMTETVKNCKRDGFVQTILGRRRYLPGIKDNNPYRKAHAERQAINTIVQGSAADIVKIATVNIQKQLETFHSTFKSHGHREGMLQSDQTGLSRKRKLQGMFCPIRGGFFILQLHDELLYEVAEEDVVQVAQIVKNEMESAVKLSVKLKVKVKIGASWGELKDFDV
The experiment in a line: Cy5 fluorescence assay of Polq polymerase domain inhibition. Type of test: biochemical. The procedure:
The following Cy5 fluorescence assay was used to measure the ability of compounds to inhibit Polq polymerase domain in vitro. The fluorescent based assay was performed as follows: 60 nM of the pre-annealed primer-template containing a 5′ Cy5 fluorophore conjugated template strand (SEQ ID NO:3: 5′-/5Cy5/[…]-3′), a downstream complementary oligo conjugated with a 3′ Blackhole quencher (SEQ ID NO:4: 5′-CTAAGCTCACAGTG/3IAbRQSp/-3′) and a primer strand (SEQ ID NO:5: 5′-CTGTCCTGCATGATG-3′) was mixed with 50 uM 2′-deoxyribonucleoside triphosphates (dNTPs), 0.1 mg/mL Bovine serum albumin (BSA), 0.01% NP-40, 10% glycerol, 1 mM dithiothreitol (DTT), 10 mM MgCl2, 25 mM TrisHCl pH 7.8 in the presence of 2.5% DMSO with or without various concentrations (7-point dilution series) of Polq small molecule inhibitors represented by Formula I at 37 °C in a volume of 40 μL.

[1] abbreviates: 5 nM Polq polymerase domain (residues 1792-2590), 60 nM primer-template, 50 uM dNTPs, 37 °C, 18 min, read-out: IC50 (nM) Polq.

As to `CN(C(=O)Oc1c(N2CCNC2=O)cc(C(F)(F)F)cc1C(F)(F)F)c1ccc(OC(F)F)cc1` [Example 26, 2-(2-oxoimidazolidin-1-yl)-4,6-bis(trifluoromethyl)phenyl (4-(difluoromethoxy)phenyl)(methyl)carbamate], the concentration for half-maximal inhibition (IC50) worked out at 48 nM.

In turn, `CN(C(=O)Oc1c(N2CCCC2=O)cc(C(F)(F)F)cc1C(F)(F)F)c1ccc(F)cc1` [Example 10, 2,4-bis(trifluoromethyl)-6-(2-oxopyrrolidin-1-yl)phenyl (4-fluorophenyl)(methyl)carbamate] had an IC50 of 21 nM.

In the case of `C[C@@H]1CCC(=O)N1c1cc(C(F)(F)F)cc(C(F)(F)F)c1OC(=O)N(C)c1ccc(F)cc1` [Example 17, 2-[(2R)-2-methyl-5-oxopyrrolidin-1-yl]-4,6-bis(trifluoromethyl)phenyl N-(4-fluorophenyl)-N-methylcarbamate], the IC50 came out at 1000 nM.

Compound `CN(C(=O)Oc1c(N2CCNC2=O)cc(C(F)(F)F)cc1C(F)(F)F)c1ccc(F)c(Cl)c1F` [Example 7, 2,4-bis(trifluoromethyl)-6-(2-oxoimidazolidin-1-yl)phenyl (3-chloro-2,4-difluorophenyl)(methyl)carbamate] gave an IC50 of 4 nM.

On to `CN(C(=O)Oc1c(N2CC[C@H](O)C2=O)cc(C(F)(F)F)cc1C(F)(F)F)c1ccc(F)cc1` [Example 19, 2,4-bis(trifluoromethyl)-6-((S)-3-hydroxy-2-oxopyrrolidin-1-yl)phenyl 4-fluorophenylmethylcarbamate], for which the IC50 under setting [1] came out at 16 nM.

On to `Cc1nc(N(C)C(=O)Oc2c(N3CCNC3=O)cc(C(F)(F)F)cc2C(F)(F)F)ccc1F` [Example 53, 2-(2-oxoimidazolidin-1-yl)-4,6-bis(trifluoromethyl)phenyl (5-fluoro-6-methylpyridin-2-yl)(methyl)carbamate], for which half-maximal inhibition (IC50) required 2.7 nM.

Turning to `Cc1cc(C(F)(F)F)cc(N2CCOC2=O)c1OC(=O)N(C)c1ccc(F)cc1` [Example 15, 4-(trifluoromethyl)-2-methyl-6-(2-oxooxazolidin-3-yl)phenyl 4-fluorophenylmethylcarbamate], the 50% inhibitory concentration (IC50) under setting [1] amounted to 80 nM.

On to `CN(C(=O)Oc1c(N2CCN(CCO)C2=O)cc(Cl)cc1C(F)(F)F)c1ccc(F)cc1` [Example 54, 4-chloro-2-(3-(2-hydroxyethyl)-2-oxoimidazolidin-1-yl)-6-(trifluoromethyl)phenyl (4-fluorophenyl)(methyl)carbamate], for which the IC50 was 68 nM.

In turn, `CN(C(=O)Oc1c(N2CCN(C3CCS(=O)(=O)C3)C2=O)cc(C(F)(F)F)cc1C(F)(F)F)c1ccc(F)cc1` (stereo not drawn) [Example 35, 2-(3-(1,1-dioxidotetrahydrothiophen-3-yl)-2-oxoimidazolidin-1-yl)-4,6-bis(trifluoromethyl)phenyl (4-fluorophenyl)(methyl)carbamate] came in with an IC50 of 2.5 nM.

For the compound `CN(C(=O)Oc1c(N2CCN(CCOS(=O)(=O)NC(=O)COCCOCCOCCN)C2=O)cc(C(F)(F)F)cc1C(F)(F)F)c1ccc(F)cc1` [Example 30, 2-(3-(2-(((4-fluorophenyl)(methyl)carbamoyl)oxy)-3,5-bis(trifluoromethyl)phenyl)-2-oxoimidazolidin-1-yl)ethyl (2-(2-(2-(2-aminoehoxy)ethoxy)ethoxy)acetyl)sulfamate], it took 2.2 nM to reach half-maximal inhibition (IC50).

`[2H]C([2H])([2H])N(C(=O)Oc1c(N2CCN(CC3(O)CNC3)C2=O)cc(C(F)(F)F)cc1C(F)(F)F)c1ccc(F)cc1` [Example 36, 2-(3-((3-hydroxyazetidin-3-yl)methyl)-2-oxoimidazolidin-1-yl)-4,6-bis(trifluoromethyl)phenyl (4-fluorophenyl)(methyl-d3)carbamate] showed an IC50 of 6 nM.

Consider `CC(=O)N1CCN(CCN2CCN(c3cc(C(F)(F)F)cc(C(F)(F)F)c3OC(=O)N(C)c3ccc(F)cc3)C2=O)CC1` [Example 2, 2-(3-(2-(4-acetylpiperazin-1-yl)ethyl)-2-oxoimidazolidin-1-yl)-4,6-bis(trifluoromethyl)phenyl (4-fluorophenyl)(methyl)carbamate], for which half-maximal inhibition (IC50) was put at 4.5 nM.

Regarding `CN(C(=O)Oc1c(N2CCN(C3CC(O)C3)C2=O)cc(C(F)(F)F)cc1C(F)(F)F)c1ccc(F)cc1` (stereo not drawn) [Example 34, 2-(3-(3-hydroxycyclobutyl)-2-oxoimidazolidin-1-yl)-4,6-bis(trifluoromethyl)phenyl (4-Fluorophenyl)(methyl)carbamate], the IC50 worked out at 2 nM.

`CN(C(=O)Oc1c(N2CCN(CC3CO3)C2=O)cc(C(F)(F)F)cc1C(F)(F)F)c1ccc(F)cc1` (stereo not drawn) [Example 25, 2,4-bis(trifluoromethyl)-6-(3-((oxiran-2-yl)methyl)-2-oxoimidazolidin-1-yl)phenyl (4-fluorophenyl)(methyl)carbamate]: the half-inhibitory concentration (IC50) was determined as 5.8 nM.

As to `Cc1cc(N(C)C(=O)Oc2c(N3CCNC3=O)cc(C(F)(F)F)cc2C(F)(F)F)ccc1F` [Example 28, 2-(2-oxoimidazolidin-1-yl)-4,6-bis(trifluoromethyl)phenyl N-(4-fluoro-3-methylphenyl)-N-methylcarbamate], half-maximal inhibition (IC50) was put at 1200 nM.

Compound `[2H]C([2H])([2H])N(C(=O)Oc1c(N2CCN(CC3(O)CNC3)C2=O)cc(C(F)(F)F)cc1C(F)(F)F)c1ccc(F)c(Cl)c1F` [Example 37, 2-(3-((3-hydroxyazetidin-3-yl)methyl)-2-oxoimidazolidin-1-yl)-4,6-bis(trifluoromethyl)phenyl (3-chloro-2,4-difluorophenyl)(methyl-d3)carbamate] registered an IC50 of 2.7 nM.

Regarding `CN(C(=O)Oc1c(N2CCNC2=O)cc(C(F)(F)F)cc1C(F)(F)F)c1ccc2ccn(C)c2n1` [Example 29, 2-(2-oxoimidazolidin-1-yl)-4,6-bis(trifluoromethyl)phenyl N-methyl-N-{1-methyl-1H-pyrrolo[2,3-b]pyridin-6-yl}carbamate], the IC50 was 18000 nM.

`CN(C(=O)Oc1c(N2C(=O)NC(O)C2O)cc(C(F)(F)F)cc1C(F)(F)F)c1ccc(F)cc1` (stereo not drawn) [Example 16, 2-(4,5-dihydroxy-2-oxoimidazolidin-1-yl)-4,6-bis(trifluoromethyl)phenyl N-(4-fluorophenyl)-N-methylcarbamate] yielded an IC50 of 5.4 nM.

Compound `[2H]C([2H])([2H])N(C(=O)Oc1c(N2CCN(CCn3cnnc3)C2=O)cc(C(F)(F)F)cc1C(F)(F)F)c1ccc(F)cc1` [Example 43, 2-(3-(2-(4H-1,2,4-triazol-4-yl)ethyl)-2-oxoimidazolidin-1-yl)-4,6-bis(trifluoromethyl)phenyl (4-fluorophenyl)(methyl-d3)carbamate] returned an IC50 of 5.4 nM.

The compound `CNCC(O)CN1CCN(c2cc(C(F)(F)F)cc(C(F)(F)F)c2OC(=O)N(C)c2ccc(F)c(Cl)c2F)C1=O` (stereo not drawn) [Example 47, 2-(3-(2-hydroxy-3-(methylamino)propyl)-2-oxoimidazolidin-1-yl)-4,6-bis(trifluoromethyl)phenyl (3-chloro-2,4-difluorophenyl)(methyl)carbamate] returned a 50% inhibitory concentration (IC50) of 4.8 nM.

Regarding `CN(C(=O)Oc1c(N2CC(C(F)(F)F)NC2=O)cc(C(F)(F)F)cc1C(F)(F)F)c1ccc(F)cc1` (stereo not drawn) [Example 18, 2-(2-oxo-4-(trifluoromethyl)imidazolidin-1-yl)-4,6-bis(trifluoromethyl)phenyl (4-fluorophenyl)(methyl)carbamate], the IC50 stood at 22 nM.

Regarding `Cc1cc(C(F)(F)F)cc(N2CCNC2=O)c1OC(=O)N(C)c1ccc(F)c(Cl)c1` [Example 14, 2-methyl-6-(2-oxoimidazolidin-1-yl)-4-(trifluoromethyl)phenyl (3-chloro-4-fluorophenyl)(methyl)carbamate], the half-inhibitory concentration (IC50) worked out at 45 nM.

With `O=C1NCCN1c1cc(C(F)(F)F)cc(C(F)(F)F)c1OC(=O)N(c1ccc(F)cc1)C1CC1` [Example 31, 2,4-bis(trifluoromethyl)-6-(2-oxoimidazolidin-1-yl)phenyl cyclopropyl4-fluorophenylcarbamate], the 50% inhibitory concentration (IC50) under setting [1] was 31 nM.

As to `CN(C(=O)Oc1c(N2CCNC2=O)cc(C(F)(F)F)cc1C(F)(F)F)c1ccccc1CC#N` [Example 33, 2,4-bis(trifluoromethyl)-6-(2-oxoimidazolidin-1-yl)phenyl 2-(cyanomethyl)phenylmethylcarbamate], the concentration for half-maximal inhibition (IC50) under setting [1] was 590 nM.

Usually IC50 stands for the concentration that inhibits the measured activity by half.
